Laboratory results taken from US20150094217A1, “TEST FOR DIAGNOSING RESISTANCE TO AZACITIDINE” (UNIVERSITÉ NICE SOPHIA ANTIPOLIS, priority 2012, published 2015).

What was measured:
SKM1-S cells = test: Cell metabolism by XTT test after azacitidine stimulation; type: cell-based; conditions: 1 μM azacitidine, 24 h
Procedure: The SKM1-S and SKM1-R cells are transfected with an interfering RNA:Luc siRNA, BCL2L10 siRNA or Bcl-2 siRNA. After 72 h of transfection, the cells are stimulated with 1 μM of azacitidine.
In FIG. 7, the cell metabolism is measured 24 hours after stimulation by means of the XTT test ([…]). The results shown correspond to the average standard error of the mean (±SEM) of three independent experiments performed four times.
To determine whether the overexpression of BCL2L10 is a cause rather than a consequence of azacitidine resistance, the SKM1-S and SKM1-R cells were transfected with a control siRNA or with siRNA directed against one or the other of the BCL2L10 or Bcl-2 proteins, then treated for 24 h with or without azacitidine, before determining cell viability and apoptosis. […] In addition, apoptosis was the main mechanism by which the extinction of the expression of the BCL2L10 gene enabled azacitidine sensitization by increasing the quantity of active caspase-3.

[1] = Overall survival (Kaplan-Meier) of MDS or AML patients treated with AZA, cohort 1; type: in vivo, human
Description: The comparison of the overall survival with transplantation according to Kaplan-Meier was examined for patients with MDS or AML treated with AZA, as well as the percentage of cells expressing BCL2L10 in their bone marrow.
An overall survival of 3 months was estimated at 95% for the sub-groups weakly expressing BCL2L10 compared with 51% for the sub-groups strongly expressing BCL2L10. For all of the patients in the sub-group strongly expressing BCL2L10, the disease progressed.

Nc1ncn([C@@H]2O[C@H](CO)[C@@H](O)[C@H]2O)c(=O)n1 [Azacitidine]
cell metabolism (SKM1-S cells): loss in cell metabolism
overall survival of 3 months ([1]; sub-groups strongly expressing BCL2L10, cohort 1): 51%
overall survival of 3 months ([1]; sub-groups weakly expressing BCL2L10, cohort 1): 95%
